Results published in patent US7247734B2 (Vernalis (Cambridge) Limited, priority 2001, dated 2007).

Tests used:
[1] = test system: HSP70 and client protein (CDK4) expression in HT29 cells; assay: Western blotting of HSP70 and CDK4 in HT29 cells; type: cell-based, human; conditions: 24 hours, various concentrations
Procedure: (§1) The cellular effects of HSP90 inhibitors can be measured using a number of molecular markers. As already mentioned, HSP90 inhibition leads to the depletion of several important cellular signalling proteins. […] Depletion is normally observed by 6 h, with maximum depletion occurring at 24 h. As well as RAF-1, depletion of several other HSP90 client proteins can be measured by immunoblotting e.g., CDK4, ERBB2. However, it is important to note that some of these proteins are cell line specific e.g., ERBB2 is expressed mainly in breast, thyroid, kidney and some ovarian tumour cell lines. Another very important marker of HSP90 inhibition is heat shock protein 70 (HSP70). A HSF-1 (heatshock factor 1) dependent increase in HSP70 levels has been reported by us and other groups (see, e.g., Whitesell et al., 1994; Clarke et al., 2000) and this effect can serve as a positive indicator of HSP90 inhibitor action. The immunoblotting method described is based on standard techniques but is described in detail for ease of reference.
Prepare as required and store at −20° C. • (4) Bicinchoninic acid (BCA) protein assay reagents (PerBio Science UK, Ltd., Chester, UK). • (5) Casein blocking buffer (0.5% casein, 0.02% thimerosal, in PBS). Store at 4° C. for up to 2 weeks. • (6) Wash buffer (phosphate buffered saline, PBS) containing 0.05% Tween 20). • (7) Tris-glycine gradient polyacrylamide precast gels (4–20%) (1 mm thick) (Novex, InVitrogen, Groningen, NL). • (8) Nitro-cellulose membrane (0.2 μm pore size) (InVitrogen, Groningen, NL). • (9) Ponceau Red stain (2% w/v in 30% TCA/30% […], Sigma Aldrich Ltd., Pool, UK). • (10) Enhanced chemiluminescence (SuperSignal) reagents (PerBio Science UK, Ltd., Chester, UK). • (11) Photographic film (Hyperfilm ECL, Amersham Pharmacia Biotech, Little Chalfont, Bucks, UK). Method
The following protocol was used: • (1) Lyse cells (approx 4×10^6) in 100 μl lysis buffer for 30 minutes on ice. When adding the lysis buffer, shear cells by pipetting up and down using a Gilson P200 pipette. • (2) Spin lysates for 10 min at 13,000 rpm at 4° C., retrieve supernatant and store at −70° C. • (3) Determine protein concentration using BCA protein assay reagents. • (4) Load samples of cell lysates (50 μg protein/lane) onto gel and separate proteins by SDS-polyacrylamide gel electrophoresis (SDS-PAGE) using a 4–20% Tris-glycine gel. • (5) Transfer proteins to nitrocellulose membrane using optimum conditions for the equipment available. For example, 150 mA for 2 h using the Mighty Small transfer system (Hoeffer TE22 Mini Tank Transphor Unit, Amersham Pharmacia Biotech, Little Chalfont, Bucks, UK). […]
(§2) Comments • (1) The protein bands are normally evaluated visually. […]

[2] = test system: HCT116 human colon tumour cells; assay: 96 h growth inhibition assay (SRB), HCT116; type: cell-based; conditions: HCT116, 96 h
Procedure: (§3) The growth inhibition assay employed was based on that described previously (Kelland et al., 1993). HCT116 and HT29 human colon tumour cells (American Tissue Culture Collection) were seeded into 96-well tissue culture plates (approximately 1600–2000 cells per well) and allowed to attach for 36 hours. Eight wells were treated with a single concentration from a range of compound concentrations and incubated for 96 hours. Cells were fixed using ice cold 10% trichloroacetic acid (TCA). Plates were then washed five times with water, air dried, and stained with 0.4% sulphorhodamine B (SRB) in 1% acetic acid for 10 minutes. The SRB stain was solubilised in 10 mM Tris-HCl and the absorbance measured at 540 nm using a Titertek Multiscan MCC/340 MKII plate reader (Flow Laboratories, IEC, Basingstoke, N.H.). The absorbance values correspond to total protein content and are used as a measure of cell growth.

[3] = test system: HT29 human colon tumour cells; assay: 96 h growth inhibition assay (SRB), HT29; type: cell-based; conditions: HT29, 96 h
Procedure: as §3

[4] = test system: HSP70 and RAF-1 expression in A2780 human ovarian cancer cells; assay: Western blotting of HSP70 and RAF-1 in A2780 cells; type: cell-based; conditions: 60 nM (5×IC50), various times
Procedure: as §1
Prepare as required and store at −20° C. • (4) Bicinchoninic acid (BCA) protein assay reagents (PerBio Science UK, Ltd., Chester, UK). • (5) Casein blocking buffer (0.5% casein, 0.02% thimerosal, in PBS). […]
as §2

C=CCNC1=C2C[C@@H](C)C[C@H](OC)[C@H](O)[C@@H](C)/C=C(\C)[C@H](OC(N)=O)[C@@H](OC)/C=C\C=C(/C)C(=O)NC(=CC1=O)C2=O [Example 17AAG, 17-allylamino-17-demethoxygeldanamycin, reference compound]
CDK4 client protein expression (immunoblot) [1]: depleted | HSP70 expression (immunoblot) [1]: induced | IC50 [2]: 100 nM | IC50 [3]: 10 nM | HSP70 expression (immunoblot) [4]: induced | RAF-1 expression (immunoblot) [4]: depleted
